Experiments:
[1] = system: fluorescent reporter PFF cell line; assay: Small molecules: effect on PE editing efficiency in fluorescent reporter PFF cell line; format: cell-based, pig; details: 20 μM RS-1, 200 ng/mL Nocodazole, FIG. 18A; for PE efficiency: single molecule added to medium after transfection: 40 μM L755507, 0.1 μM Brefeldin A, 10 nM TSA; for increase of editing efficiency: single molecule: 10 nM TSA
Protocol: From this, it can be expected that some small molecules may also improve the editing efficiency of PE. […] Cells were treated by adding the corresponding concentrations of small molecules or combinations of small molecules, respectively, to the medium after transfection.

primary PFFs = assay: Small molecules: effect on PE editing efficiency in primary PFFs; format: cell-based, pig; details: primary PFF; FIG. 18C
Protocol: Cells were treated by adding the corresponding concentrations of small molecules or combinations of small molecules, respectively, to the medium after transfection.
The effect of Rs-1, Nocodazole, TSA, and the combination of Rs-1+TSA and Rs-1+Nocodazole in primary PFFs was then verified.

[2] = system: 293T cells co-transfected with fluorescent reporter gene vector; assay: 293T cell fluorescence reporter gene co-transfection experiment; format: cell-based; details: Bmx-PERV-RT with 6 mutation sites and combinations; 3 editing forms; FIG. 12
Protocol: 1×10^5 cells were inoculated into a 24-well culture dish 17-24 hours before cell transfection, and when the cell confluence reached 50-80%, transfection was performed using H4000 reagent (Ingran, China), and each transfection reaction included 200 ng PE editor, 100 ng pegRNA, 100 ng ngRNA, 10 ng fluorescent reporter gene vector and 0.5 μL H4000 reagent. The cells were collected 48 hours after transfection, and detected by flow cytometry (BD, USA), with wild-type fluorescence reporter cells as background, and GFP positive cells were circled with FITC+PE double channel, with GFP ratio as editing efficiency.

[3] = system: dog fetal fibroblasts (DFF); assay: Editing efficiency of PE editors in dog fetal fibroblasts; format: cell-based; details: pPE editors with 4 point mutations; canine fetal fibroblasts; FIG. 9
Protocol: (§1) Canine fetal fibroblasts (DFF) were isolated from a female canine fetus on 30 days of gestation, and the specific establishment method was the same as that of PFF; goat fetal fibroblasts (SFF) were given by Yunnan Agriculture University Weijiang Laboratory, and the cells were isolated from a small tailed han sheep fetus; 293T cells were purchased from the Cell Bank of the Type Culture Collection Committee of Chinese Academy. All three cells were cultured in high-glucose DMEM (Gibco, USA) culture medium containing 12% (v/v) fetal bovine serum (Excell, China) and 1% (v/v) penicillin-streptomycin (BI, China) at 37° C. in a 5% CO2 incubator.
(§2) DFF and SFF: The method is similar to the transfection method of PFF, and the difference lies in that when DFF and SFF were transformed, the cells were shocked by using the EN-150 program, then again by using the CA-113 program.
(§3) SFF and DFF cells: 3 μg/mL puromycin (Sigma, Japan) was added 48 hours after electrotransformation for screening for 2 days, and then the culture medium was changed for further culture for 2 days.
(§4) The method is same with the detection of editing efficiency of PFF.

HEK293T cells = assay: Editing efficiency of PE editors in 293T cells (puromycin screening, sequencing); format: cell-based; details: pPE editors with 4 point mutations, FIG. 9
Protocol: as §1
293T cells: cells were inoculated into a 24-well culture dish 1-2 days before cell transfection, and when the cell confluency reached 50-60%, the cells were transfected with Lipofectamine 3000 reagent (Invitrogen, USA), and each transfection reaction included 1 μg PE editor, 0.5 μg pegRNA, 0.5 μg ngRNA and 1 μL Lipofectamine 3000 reagent.
293T cells: after transfection, 3 μg/mL puromycin (Sigma, Japan) was added for screening for 3 days, and then the culture medium was changed and cultured for another 2 days.
as §4

[4] = system: sheep fetal fibroblasts (SFF); assay: Editing efficiency of PE editors in sheep fetal fibroblasts; format: cell-based; details: pPE editors with 4 point mutations; FIG. 9
Protocol: as §1, §2, §3, §4

primary PFF cells = assay: Editing efficiency of PE editors in primary PFF cells (high throughput sequencing of target sites); format: cell-based, pig
Protocol: The sows for 31 days gestation were sacrificed and dissected, the whole uterus was taken out, the fetus and the fetal membrane were taken out one by one, and transferred into a DMEM solution containing 5% (v/v) penicillin and streptomycin (v/v; Gibco: 15140-122) for storage in a refrigerator at 4° C. In a clean bench, the isolated fetus was transferred one by one to a sterile 10 cm culture dish, and the head, viscera, limbs and tail of the fetus were removed with sterile forceps and scissors; the remaining part of the fetus was cleaned with a PBS solution containing 5% (v/v) penicillin and streptomycin (Gibco: 15140-122)), and then the remaining part of the fetus was cut to about 1 mm^3 within 10-15 minutes, and 5 ml of collagenase working solution was added to the cut tissue; the tip of 1 ml of sterile pipettor was cut off with scissors, and the cut tissue pieces were transferred to a 15 ml sterile centrifuge tube, sealed and placed in a shaker at 37° C. for incubation for 2 hours. After that, the centrifuge tube was centrifuged at 1000 rpm for 5 minutes, the upper collagenase working solution was removed, and the incubated tissues were evenly transferred into two T75 culture dishes and cultured in a 37° C., 5% CO2 sterile incubator. […]

[5] = system: immortalized BFP fluorescence reporter PFF cell line; assay: Editing efficiency of PE editors in immortalized BFP fluorescence reporter PFF cell line (flow cytometry, GFP ratio); format: cell-based, Bama pig; details: epPE editors vs PE2c-Puro and each other, FIG. 3
Protocol: The immortalized BFP fluorescence reporter PFF cell line was cultured in high glucose DMEM (Gibco, USA) medium containing 12% fetal bovine serum ((v/v), Excell, China) and 1% penicillin ((v/v), BI, China). The cell line was constructed by the laboratory, firstly, the SV40 large T antigen was site-directed knocked into the H11 safe harbor site of the primary PFFs of Bama pig, and then the BFP vector was site-directed integrated into the Rosa26 safe harbor site of immortalized PFF by the CRISPR Cas9 technology, and finally the BFP fluorescence reporter PFF cell line was obtained by serial passage. […]
After the cells were digested with 0.125% trypsin (Gibco, USA), the cells were collected into a 1.5 mL EP tube, centrifuged at 200×g for 5 minutes, the supernatant was discarded, 50 μL of 1×PBS buffer was added to resuspend the cells, and the cells were detected by using a flow cytometer (BD, USA), the wild-type fluorescence reporter cells were used as the background, and GFP-positive cells were circled by using two channels of FITC+PE, and the GFP ratio was the editing efficiency.

Compound	PE efficiency [1]	increase of editing efficiency [1] [%]	improvement of overall editing efficiency for the 6 sites (primary PFFs) [%]	other results
C[C@H]1CCC/C=C/[C@@H]2C[C@H](O)C[C@H]2[C@H](O)/C=C/C(=O)O1 [BrefeldinA, Brefeldin A]	significantly (P<0.05 or P<0.01) improved PE efficiency	–	–	–
CCCCCCNC(=O)Nc1ccc(S(=O)(=O)Nc2ccc(CCNC[C@H](O)COc3ccc(O)cc3)cc2)cc1 [L755507]	significantly (P<0.05 or P<0.01) improved PE efficiency	–	–	–
COC(=O)Nc1nc2ccc(C(=O)c3cccs3)cc2[nH]1 [Nocodazole]	significantly (P<0.05 or P<0.01) improved PE efficiency	66.9	36.4	–
O=C(Nc1ccc(Br)cc1)c1ccc(Br)c(S(=O)(=O)NCc2ccccc2)c1 [Rs-1]	significantly (P<0.05 or P<0.01) improved PE efficiency	32.7	20.8	–
CC(/C=C/C(=O)NO)=C\[C@@H](C)C(=O)c1ccc(N(C)C)cc1 [TSA, Trichostatin A]	significantly (P<0.05 or P<0.01) improved PE efficiency	34.4	14.3	–
M5.1: pPE editor, PERV-RT variant carrying 5 amino acid mutations (D199N, T305K, W312F, L602W, V222A); SEQ ID NO: 45	–	–	–	efficiency (GFP ratio) [2]: overall optimal efficiency in 3 editing forms
bmx-pPE-C-M4-puro: pPE editor, Bama pig type C PERV-RT with D199N, T305K, W312F, L602W; SEQ ID NO: 31	–	–	–	editing efficiency [3]: higher efficiency at most sites; editing efficiency (HEK293T cells): higher efficiency at most sites; editing efficiency [4]: higher efficiency at most sites; editing efficiency (primary PFF cells; pPE editors with 4 point mutations in PFF, FIG. 8): overall higher efficiency
epPE-AC-M3Δ-Puro: PE editor: nCas9 fused to PERV-AC-NC and PERV-AC-RT (ΔRNase H) with D199N, T305K, W312F; SEQ ID NO: 22	–	–	–	editing efficiency (GFP ratio) [5]: higher than that of epPE-B-M3Δ-Puro; average editing efficiency (primary PFF cells; 6 editing sites tested in the primary PFF, FIG. 4): higher than that of epPE-B-M3Δ-Puro
epPE-AC-M4Δ*-Puro: epPE-AC-M3Δ-Puro with RT amino acids 329-332 mutated from EKGE to PGTL; SEQ ID NO: 23	–	–	–	editing efficiency (GFP ratio) [5]: higher than that of epPE-B-M4Δ*-Puro

From US20260275307A1, “PRIME EDITING SYSTEM BASED ON PERV REVERSE TRANSCRIPTASE” (Jiangxi Agricultural University, priority 2023, published 2026)
